The values below come from ChEMBL document CHEMBL4190268, “Design, synthesis and biological studies of a library of NK1-Receptor Ligands Based on a 5-arylthiosubstituted 2-amino-4,6-diaryl-3-cyano-4H-pyran core: Switch from antagonist to agonist effect by chemical modification” (Eur J Med Chem, 2017).

The structures appear in SMILES notation. Calls of active or inactive are those of the source. The rule behind the calls is not given here.

For series [1], the target named is T1, Substance-P receptor (Homo sapiens, UniProt P25103). Kind of series: Antagonist activity at His6-tagged NK1 receptor (unknown origin) expressed in CHO cells assessed as inhibition of substance-P-induced IP1 accumulation at 10^-5 M preincubated for 10 mins followed by substance-P addition measured after 30 mins by HTRF-FRET assay relative to control. The class given is functional, cell-based. For orientation: TR-FRET usually uses a lanthanide donor and a delayed reading to cut background.

For series [2], the target named is T1, Substance-P receptor. In words: Antagonist activity at His6-tagged NK1 receptor (unknown origin) expressed in CHO cells assessed as inhibition of substance-P-induced IP1 accumulation at 5 x 10^-5M preincubated for 10 mins followed by substance-P addition measured after 30 mins by HTRF-FRET assay relative to control. The class given is functional, cell-based.

Series [3] has as its system MRC5. In words: cells. Particulars: Homo sapiens, MRC5, 48 h.
Description: Cytotoxicity against human MRC5 cells after 48 hrs by MTT assay
In series [4] the test system is MRC5. In words: Cytotoxicity against human MRC5 cells assessed as cell death at greater than cytotoxic IC50 after 48 hrs by MTT assay relative to control. Particulars: mrc5, 48 h. The class given is cell-based.
Series [5] relates to A549. In words: cells. As to conditions: Homo sapiens, A549, 48 h.
Series [6] relates to A549. Kind of series: Cytotoxicity against human A549 cells assessed as cell death at greater than antiproliferative IC50 after 48 hrs by MTT assay relative to control. The class given is functional.
For series [7], the target named is T1, Substance-P receptor. Particulars: CHO, 10^-7 M.
Description: Antagonist activity at His6-tagged NK1 receptor (unknown origin) expressed in CHO cells assessed as inhibition of substance-P-induced IP1 accumulation at 10^-7 M preincubated for 10 mins followed by substance-P addition measured after 30 mins by HTRF-FRET assay relative to control
The target of series [8] is T1, Substance-P receptor. Kind of series: Partial agonist activity at His6-tagged NK1 receptor (unknown origin) expressed in CHO cells assessed as IP1 accumulation at 5 x 10^-5M measured after 30 mins by HTRF-FRET assay relative to control. Type of series: functional, cell-based.
The target of series [9] is T1, Substance-P receptor. Kind of series: Partial agonist activity at His6-tagged NK1 receptor (unknown origin) expressed in CHO cells assessed as IP1 accumulation at 10^-5 M measured after 30 mins by HTRF-FRET assay relative to control. Type of series: functional, cell-based.
For series [10], the target named is T1, Substance-P receptor. In words: Partial agonist activity at His6-tagged NK1 receptor (unknown origin) expressed in CHO cells assessed as IP1 accumulation measured after 30 mins by HTRF-FRET assay. Type of series: functional, cell-based.
Series [11] deals with A549. Kind of series: Cytotoxicity against human A549 cells assessed as cell viability at 320 uM after 48 hrs by MTT assay relative to control. Type of series: functional. As to conditions: A549, 48 h, read-out: Activity. A general note: Tetrazolium dyes change colour on reduction, which living cells bring about.
Series [12] is described as follows: Cytotoxicity against human MRC5 cells assessed as cell viability at 320 uM after 48 hrs by MTT assay relative to control. Type of series: cell-based. As to conditions: read-out: Activity.
Series [13] concerns the target T1, Substance-P receptor. In words: Antagonist activity at His6-tagged NK1 receptor (unknown origin) expressed in CHO cells assessed as inhibition of substance-P-induced IP1 accumulation preincubated for 10 mins followed by substance-P addition measured after 30 mins by HTRF-FRET assay.
Series [14] relates to A549. In words: Growth inhibition of human A549 cells at 1 mM by inverted microscopic method. Type of series: functional, cell-based.
Series [15] concerns A549. In words: Growth inhibition of human A549 cells at 10^3 uM after 48 hrs by MTT assay relative to control. Type of series: functional.
A short description of series [16]: Cytotoxicity against human MRC5 cells assessed as cell growth inhibition at 10^3 uM after 48 hrs by MTT assay relative to control. The class given is cell-based. Particulars: read-out: GI.

T1 sequence (P25103 whole entry): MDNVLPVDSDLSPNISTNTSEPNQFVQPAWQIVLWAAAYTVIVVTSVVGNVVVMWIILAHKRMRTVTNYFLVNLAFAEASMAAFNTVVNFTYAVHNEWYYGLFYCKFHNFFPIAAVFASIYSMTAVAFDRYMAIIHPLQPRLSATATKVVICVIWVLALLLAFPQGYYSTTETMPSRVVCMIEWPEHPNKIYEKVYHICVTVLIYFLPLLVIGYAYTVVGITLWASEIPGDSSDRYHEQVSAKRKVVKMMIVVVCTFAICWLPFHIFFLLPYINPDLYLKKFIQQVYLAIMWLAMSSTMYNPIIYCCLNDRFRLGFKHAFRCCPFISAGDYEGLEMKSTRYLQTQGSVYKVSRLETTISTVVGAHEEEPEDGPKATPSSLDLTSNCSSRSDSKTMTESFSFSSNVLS

In the case of `Cc1ccc([S@+]([O-])C2=C(c3ccccn3)OC(N)=C(C#N)[C@H]2c2cc(C(F)(F)F)cc(C(F)(F)F)c2)cc1`, the inhibition in series [1] was determined as 30%; in series [2] it was 28.6%.

A word on the IC50: it is the concentration needed to halve the response being measured. For `Cc1ccc([S@+]([O-])C2=C(c3ccccn3)OC(N)=C(C#N)[C@H]2c2ccccc2)cc1`, the 50% inhibitory concentration (IC50) in series [3] came out at 132 µM; in series [5], 172 µM. The Activity in series [4] is less than 30%; in [6], “<=80%”. For the same compound, the inhibition came to 42% in series [1] and 51.1% in [2].

As for `N#CC1=C(N)OC(c2ccccn2)=C([S+]([O-])c2ccc([N+](=O)[O-])cc2)C1c1ccc([N+](=O)[O-])cc1` (racemic), the IC50 was determined as 825 µM in series [3] and 536 µM in series [5]. The inhibition in series [1] came to 35.6%; in series [2] it was 56.1%.

Regarding `Cc1ccc([C@@H]2C(C#N)=C(N)OC(c3ccccn3)=C2[S@@+]([O-])c2ccc(C)cc2)cc1`, the inhibition was 37% in series [1] and 50.8% in series [2].

`Cc1ccc([S@+]([O-])C2=C(c3ccccn3)OC(N)=C(C#N)[C@H]2c2ccc(F)cc2)cc1`: the inhibition in series [2] turned out to be 21%.

As to `COc1ccccc1CN[C@H]1C2CCN(CC2)[C@H]1C(c1ccccc1)c1ccccc1` [CP-96345], the figures for the IC50 in series [3] and in series [5] were 57.9 µM and 46.8 µM, respectively. Also, in series [7], the inhibition was 85.3%.

On to `Cc1ccc([S+]([O-])C2=C(c3ccco3)OC(N)=C(C#N)C2c2ccc(Cl)cc2)cc1` (racemic), for which the inhibition in series [2] is 12.5%.

Consider `CC(=O)NC1=C(C#N)[C@H](c2ccc(C)cc2)C([S@+]([O-])c2ccc(C)cc2)=C(c2ccccn2)O1`, for which the Activity in series [8] was determined as 30.4%. Moreover, the inhibition was found to be 21.4% in series [1] and 37.1% in series [2].

For orientation: EC50 means the concentration giving half of the maximal effect. For the compound `Cc1ccc(SC2=C(c3ccccn3)OC(NC(=O)C(F)(F)F)=C(C#N)[C@H]2c2ccc([N+](=O)[O-])cc2)cc1`, the Activity is 62.3% in series [8] and 25.9% in series [9]. The inhibition in series [2] came out at 23.8%. In [10], the EC50 stood at 350 µM.

Consider `N#CC1=C(N)OC(c2ccccn2)=C([S+]([O-])c2ccccc2)C1c1ccc([N+](=O)[O-])cc1` (racemic), for which the inhibition in series [1] is 33.5%; in series [2], 45.9%.

Turning to `Cc1ccc(SC2=C(c3ccccn3)OC(NC(=O)C(F)(F)F)=C(C#N)[C@H]2c2ccccc2)cc1`, the Activity in series [8] is 34.2%; in series [9], 13.5%. The inhibition turned out to be 6.93% in series [1] and 36.8% in [2].

`Cc1ccc([S@+]([O-])C2=C(c3ccccn3)OC(N)=C(C#N)[C@H]2c2ccc([N+](=O)[O-])cc2)cc1`: the inhibition in series [1] was found to be 43.3%; in series [2], 49.7%.

`Cc1ccc([S@@+]([O-])C2=C(c3ccccn3)OC(N)=C(C#N)[C@@H]2c2ccc([N+](=O)[O-])cc2)cc1`: the inhibition is 18.5% in [1] and 20.6% in [2].

On to `COc1ccc([C@@H]2C(C#N)=C(N)OC(c3ccccn3)=C2[S@@+]([O-])c2ccc(C)cc2)cc1`, for which the results for the IC50 in series [3] and in [5] were 430 µM and 156 µM, respectively. In addition, the viability at 320 µM in series [11] is 7%. In addition, the viability at 48 h, 320 µM in [12] came out at 70%. In addition, the inhibition in series [1] amounted to 34.5%; in [2] it was 43.9%.

Consider `N#CC1=C(N)OC(c2ccccn2)=C(S(=O)(=O)c2ccccc2)C1c1ccc([N+](=O)[O-])cc1` (racemic), for which the IC50 was 140 µM in series [3], 200 µM in series [13] and 148 µM in series [5]. The inhibition in series [1] stood at 45.5%; in [2] it was 68.5%.

Turning to `N#CC1=C(N)OC(c2ccccn2)=C([S+]([O-])c2ccc([N+](=O)[O-])cc2)C1c1ccccc1` (racemic), the inhibition in series [2] is 56.6%.

For `CC(=O)NC1=C(C#N)[C@@H](c2ccc(C)cc2)C([S@@+]([O-])c2ccc(C)cc2)=C(c2ccccn2)O1`, the IC50 turned out to be 136 µM in [3] and 108 µM in series [5]. Further, the Activity was determined as 30.4% in series [8] and 19.8% in series [9]. Besides, the inhibition in series [1] stood at 33.3%; in [2] it was 47.2%.

On to `Cc1ccc([S+]([O-])C2=C(c3ccccn3)OC(N)=C(C#N)C2c2ccc(Cl)cc2)cc1` (racemic), for which the inhibition was found to be 13.9% in [1] and 15.8% in series [2].

Regarding `N#CC1=C(N)OC(c2ccccn2)=C([S+]([O-])c2ccc([N+](=O)[O-])cc2)C1c1ccc(Cl)cc1` (racemic), the inhibition in series [2] was 32.2%.

On to `Cc1ccc([S@@+]([O-])C2=C(c3ccccn3)OC(N)=C(C#N)[C@@H]2c2ccc(F)cc2)cc1`, for which the inhibition in series [2] came out at 11.2%.

Take `COc1ccc(C2C(C#N)=C(N)OC(c3ccccn3)=C2[S+]([O-])c2ccccc2)cc1` (racemic): the inhibition in series [2] was 11.1%.

As to `Cc1ccc(C2C(C#N)=C(N)OC(c3ccccn3)=C2[S+]([O-])c2ccc([N+](=O)[O-])cc2)cc1` (racemic), the inhibition in [2] worked out at 38.1%.

Regarding `Cc1ccc([S+]([O-])C2=C(c3ccccn3)OC(N)=C(C#N)C2c2ccc([N+](=O)[O-])cc2)cc1` (racemic), the inhibition stood at 30% in [1] and 28.9% in [2].

Regarding `Cc1ccc([C@H]2C(C#N)=C(N)OC(c3ccccn3)=C2[S@+]([O-])c2ccc(C)cc2)cc1`, the figures for the inhibition in [1] and in [2] were 37.5% and 23.7%, respectively.

For `Cc1ccc(C2C(C#N)=C(N)OC(c3ccccn3)=C2[S+]([O-])c2ccc(C)cc2)cc1` (racemic), the inhibition worked out at 32.8% in series [1] and 32.2% in series [2].

For `CC(O)C(=O)O` (configuration not stated) [LACTIC ACID], the IC50 in series [3] was found to be 23.9 µM; in series [5], 26.6 µM.

Turning to `Cc1ccc([S+]([O-])C2=C(c3ccccn3)OC(N)=C(C#N)C2c2ccc(F)cc2)cc1` (racemic), the inhibition in series [2] stood at 2.51%.

As to `Cc1ccc([S@+]([O-])C2=C(c3ccccn3)OC(N)=C(C#N)[C@H]2c2ccc(Cl)cc2)cc1`, the inhibition in series [1] stood at 30%; in series [2] it was 21%.

Turning to `N#CC1=C(N)OC(c2ccccn2)=C([S+]([O-])c2ccccc2)C1c1ccccc1` (racemic), the values for the inhibition in series [1] and in [2] were 32% and 19.8%, respectively.

Take `Cc1ccc([S@@+]([O-])C2=C(c3ccccn3)OC(N)=C(C#N)[C@@H]2c2ccc(Cl)cc2)cc1`: the inhibition in series [2] amounted to 5.8%.

For `Cc1ccc([S@@+]([O-])C2=C(c3ccccn3)OC(N)=C(C#N)[C@@H]2c2ccccc2)cc1`, the results for the half-maximal inhibitory concentration (IC50) in series [3] and in series [5] were 425 µM and 196 µM, respectively. Moreover, the inhibition in [1] turned out to be 28.8%; in [2], 20.9%.

For the compound `COc1ccc([C@H]2C(C#N)=C(N)OC(c3ccccn3)=C2[S@+]([O-])c2ccc(C)cc2)cc1`, the “growth inhibition (GI)” value in series [14] is “Active”. Further, the values for the inhibition in series [1] and in series [2] were -4.43% and 28.1%, respectively. In [15], the “growth inhibition (GI)” value amounted to 100%. The same compound showed an IC50 in series [5] of 508 µM. Also, the inhibition at 48 h, 1000 uM in [16] amounted to 30%.

Regarding `Cc1ccc(C2C(C#N)=C(N)OC(c3cc(C(F)(F)F)cc(C(F)(F)F)c3)=C2[S+]([O-])c2ccc(C)cc2)cc1` (racemic), the inhibition in series [2] is 11.5%.

Turning to `Cc1ccc([S+]([O-])C2=C(c3ccccn3)OC(N)=C(C#N)C2c2ccccc2)cc1` (racemic), the inhibition in [1] came out at 35%; in [2], 24.4%.
